Test results published in patent US10239856B2, “Synthesis of resorcylic acid lactones useful as therapeutic agents” (UNIVERSITY DE STRASBOURG, priority 2008, dated 2019).
Like-named read-outs stand apart in the source and are kept apart here.

Tests used:
Her-2 (HSP90 client) = Her-2 (HSP90 client) degradation (client depletion); type: cell-based
Protocol: A number of the compounds of the invention were tested for affinity to HSP90α (see Kim et al., J. Biomol. Screen., 2004, 9, 375), Her-2 (HSP90 client) degradation (see Xu et al., J. Biol. Chem., 2001, 276, 3702), and cytotoxicity against SKBr3 and HCC1954, two breast cancer cell lines which over express Her-2.

HCC1954 = assay: Cytotoxicity against HCC1954 breast cancer cells; type: cell-based; conditions: Homo sapiens, second value of cell
Protocol: (§1) Compounds of the invention were assayed for cytotoxicity in HCC1954 and SK-BR-3 tumor cells.

SKBr3 = assay: Cytotoxicity against SKBr3 breast cancer cells; type: cell-based; conditions: Homo sapiens, SK-BR-3, first value of cell
Protocol: as §1

HSP90α = HSP90α (Homo sapiens, UniProt P07900); assay: Affinity to HSP90α; type: binding
[1] = Her-2 degradation; read-out: Client Depletion
[2] = read-out: Client Depletion; Her-2 degradation

Compound	IC50 (Her-2 (HSP90 client); [2]) [nM]	IC50 (HSP90α; HSP90 affinity) [nM]	further results
O=C1OCC/C=C/CC/C=C/C(=NOCC(=O)N2CCOCC2)Cc2c(Cl)c(O)cc(O)c21 [13d]			IC50 (Her-2 (HSP90 client); [1]): > 10000 nM; IC50 (HCC1954): > 10000 nM; IC50 (SKBr3): > 10000 nM; IC50 (HSP90α; read-out: HSP90 affinity): 220 nM
O=C1OCC/C=C/CCCCC(=NOCC(=O)N2CCCCC2)Cc2c(Cl)c(O)cc(O)c21 [13g]			IC50 (HSP90α; read-out: HSP90 affinity): 81 nM
CNC(=O)CON=C1/C=C/CC/C=C/CCOC(=O)c2c(O)cc(O)c(Cl)c2C1 [13i]			IC50 (HCC1954): > 10000 nM; IC50 (SKBr3): > 10000 nM; IC50 (HSP90α; read-out: HSP90 affinity): 1200 nM
C/C1=C\C(=NOCC(=O)N2CCCCC2)Cc2cc(O)cc(O)c2C(=O)O[C@H](C)C/C=C/CC1 [compound 336]			IC50 (HSP90α; read-out: HSP90 affinity): < 52 nM
C/C1=C\C(=NOCC(=O)N2CCCCC2)Cc2cc(O)cc(O)c2C(=O)OCC/C=C/CC1 [compound 349]	105	46	
CCCC1C/C=C/CC/C(C)=C/C(=NOCC(=O)N2CCCCC2)Cc2cc(O)cc(O)c2C(=O)O1 (stereo not shown) [compound 350]	805	196	
CCN(CC)C(=O)CON=C1/C=C(\C)CC/C=C/C[C@@H](C)OC(=O)c2c(O)cc(O)cc2C1 [compound 351]	900	204	
O=C1OC/C=C/CCCCC(=NOCC(=O)N2CCCCC2)Cc2cc(O)cc(O)c21 [compound 353]			IC50 (Her-2 (HSP90 client); [1]): > 10000 nM; IC50 (HSP90α; read-out: HSP90 affinity): 3030 nM
O=C1OCC/C=C/CCCCC(=NOCC(=O)N2CCCCC2)Cc2c(Cl)c(O)cc(O)c21 [compound 356]			IC50 (Her-2 (HSP90 client); [1]): 9480 nM; IC50 (HSP90α; read-out: HSP90 affinity): 511 nM
CCN(CC)C(=O)CON=C1/C=C/CC/C=C/CCOC(=O)c2c(O)cc(O)cc2C1 [compound 357]	730	196	
CCCC1C/C=C/CC/C=C/C(=NOCC(=O)N2CCCCC2)Cc2cc(O)cc(O)c2C(=O)O1 (stereo not shown) [compound 358]	> 10000	587	
CCCC1C/C=C/CCCCC(=NOCC(=O)N2CCCCC2)Cc2cc(O)cc(O)c2C(=O)O1 (stereo not shown) [compound 359]	> 8800	1940	
CC1/C=C/CCCOC(=O)c2c(O)cc(O)cc2CC(=NOCC(=O)N2CCCCC2)/C=C/C1 (stereo not shown) [compound 361]			IC50 (Her-2 (HSP90 client); [1]): 2960 nM; IC50 (HSP90α; read-out: HSP90 affinity): 543 nM
CCCC1C/C=C/CC/C(C)=C/C(=NOCC(=O)N(CC)CC)Cc2cc(O)cc(O)c2C(=O)O1 (stereo not shown) [compound 362]	> 10000	4660	
CCCC1C/C=C/CC/C(C)=C/C(=NOCC(=O)N(CC)CC)Cc2cc(O)cc(O)c2C(=O)O1 (stereo not shown) [compound 363]	> 10000	900	
CCCC1C/C=C/C(C)C/C=C/C(=NOCC(=O)N2CCCCC2)Cc2c(Cl)c(O)cc(O)c2C(=O)O1 (stereo not shown) [compound 365]	8970	1750	

Compound	IC50 (Her-2 (HSP90 client); [2]) [nM]	IC50 (HSP90α; HSP90 affinity) [nM]	further results
CC1/C=C/CCOC(=O)c2c(O)cc(O)c(Cl)c2CC(=NOCC(=O)N2CCCCC2)/C=C/C1 (stereo not shown) [compound 366]	2040	170	
CC1/C=C/CCCOC(=O)c2c(O)cc(O)c(Cl)c2CC(=NOCC(=O)N2CCCCC2)/C=C/C1 (stereo not shown) [compound 367]	> 10000	1720	
CC1/C=C/COC(=O)c2c(O)cc(O)c(Cl)c2CC(=NOCC(=O)N2CCCCC2)/C=C/C1 (stereo not shown) [compound 368]			IC50 (Her-2 (HSP90 client); [1]): > 10000 nM; IC50 (HSP90α; read-out: HSP90 affinity): 599 nM
CC1/C=C/C[C@@H](C)OC(=O)c2c(O)cc(O)c(Cl)c2CC(=NOCC(=O)N2CCCCC2)/C=C/C1 (stereo partly shown) [compound 369]	677	154	
CC1/C=C/CCOC(=O)c2c(O)cc(O)cc2CC(=NOCC(=O)N2CCCCC2)/C=C/C1 (stereo not shown) [compound 370]	97	38	
CCC1CCCCN1C(=O)CON=C1/C=C/CC/C=C/CCOC(=O)c2c(O)cc(O)cc2C1 (stereo not shown) [compound 371]	629	243	
CC1CCCCN1C(=O)CON=C1/C=C/CC/C=C/CCOC(=O)c2c(O)cc(O)cc2C1 (stereo not shown) [compound 372]	3070	886	
CC1CCCN(C(=O)CON=C2/C=C/CC/C=C/CCOC(=O)c3c(O)cc(O)cc3C2)C1 (stereo not shown) [compound 373]	89	59	
CC1CCCC(C)N1C(=O)CON=C1/C=C/CC/C=C/CCOC(=O)c2c(O)cc(O)cc2C1 (stereo not shown) [compound 374]	2030	238	
CC1CCN(C(=O)CON=C2/C=C/CC/C=C/CCOC(=O)c3c(O)cc(O)cc3C2)CC1 [compound 375]	201	70	
O=C1OCC/C=C/CC/C=C/C(=NOCC(=O)N2CCC(c3ccccc3)CC2)Cc2cc(O)cc(O)c21 [compound 376]	> 10000	2240	
O=C1OCC/C=C/CC/C=C/C(=NOCC(=O)N2CCC(Cc3ccccc3)CC2)Cc2cc(O)cc(O)c21 [compound 377]	> 10000	5760	
CC(C)(C)OC(=O)N1CCN(C(=O)CON=C2/C=C/CC/C=C/CCOC(=O)c3c(O)cc(O)cc3C2)CC1 [compound 392]			IC50 (Her-2 (HSP90 client); [1]): 2870 nM; IC50 (HSP90α; read-out: HSP90 affinity): 327 nM
O=C1OCCC/C=C/CC/C=C/C(=NOCC(=O)N2CCCCC2)Cc2c(Cl)c(O)cc(O)c21 [compound 396]			IC50 (Her-2 (HSP90 client); [1]): 3650 nM; IC50 (HSP90α; read-out: HSP90 affinity): 182 nM
C[C@@H]1C/C=C/CC/C=C/C(=O)Cc2c(Cl)c(O)cc(O)c2C(=O)O1 [pochonin D, Pochonin D, reference compound]			IC50 (Her-2 (HSP90 client); [1]): 3500 nM; IC50 (HSP90α; read-out: HSP90 affinity): 360 nM

Continued, in another order:

IC50 (Her-2 (HSP90 client); [2]) [nM]	IC50 (HSP90α; HSP90 affinity) [nM]	Compound	further results
929	57	O=C(CON=C1/C=C/CC/C=C/CCOC(=O)c2c(O)cc(O)cc2C1)NCc1ccccc1 [compound 378]	
627	162	CC(C)N(C(=O)CON=C1/C=C/CC/C=C/CCOC(=O)c2c(O)cc(O)cc2C1)C(C)C [compound 379]	
588	124	O=C1OCC/C=C/CC/C=C/C(=NOCC(=O)N2CCOCC2)Cc2cc(O)cc(O)c21 [compound 380]	
> 10000	2990	O=C1OCC/C=C/CC/C=C/C(=NOCC(=O)N(Cc2ccccc2)Cc2ccccc2)Cc2cc(O)cc(O)c21 [compound 381]	
122	22	O=C1OCC/C=C/CC/C=C/C(=NOCC(=O)N2CC=CCC2)Cc2cc(O)cc(O)c21 [compound 382]	
708	116	O=C(CON=C1/C=C/CC/C=C/CCOC(=O)c2c(O)cc(O)cc2C1)NC1CCCCC1 [compound 383]	
512	70	O=C1OCC/C=C/CC/C=C/C(=NOCC(=O)N2CCSCC2)Cc2cc(O)cc(O)c21 [compound 384]	
8160	373	COC(=O)CON=C1/C=C/CC/C=C/CCOC(=O)c2c(O)cc(O)cc2C1 [compound 385]	
669	128	O=C1OCC/C=C/CC/C=C/C(=NOCC(=O)N2CC=CC2)Cc2cc(O)cc(O)c21 [compound 386]	
568	118	CC1C=CC(C)N1C(=O)CON=C1/C=C/CC/C=C/CCOC(=O)c2c(O)cc(O)cc2C1 (stereo not shown) [compound 387]	
509	219	O=C1OCC/C=C/CC/C=C/C(=NOCC(=O)N2CCCC2)Cc2cc(O)cc(O)c21 [compound 388]	
454	155	CCCN(CCC)C(=O)CON=C1/C=C/CC/C=C/CCOC(=O)c2c(O)cc(O)cc2C1 [compound 389]	
549	94	CC(C)CN(CC(C)C)C(=O)CON=C1/C=C/CC/C=C/CCOC(=O)c2c(O)cc(O)cc2C1 [compound 390]	
2830	337	CC1CN(C(=O)CON=C2/C=C/CC/C=C/CCOC(=O)c3c(O)cc(O)cc3C2)CC(C)O1 (stereo not shown) [compound 391]	
	97	O=C1OCC/C=C/CC/C=C/C(=NOCC(=O)N2CCNCC2)Cc2cc(O)cc(O)c21 [compound 393]	
1580	96	CCCC1C/C=C/CC/C=C/C(=NOCC(=O)N2CCCCC2)Cc2c(Cl)c(O)cc(O)c2C(=O)O1 (stereo not shown) [compound 394]	
754	97	O=C1NCC/C=C/CC/C=C/C(=NOCC(=O)N2CCCCC2)Cc2c(Cl)c(O)cc(O)c21 [compound 395]	
980	432	C=C/C1=C\CC/C=C/C(=NOCC(=O)N2CCCCC2)Cc2c(Cl)c(O)cc(O)c2C(=O)OCC1 [compound 397]	
	12	C[C@@H]1C/C=C/[C@@H](O)C/C=C/C(=N/OCC(=O)N2CCCCC2)Cc2cc(O)cc(O)c2C(=O)O1 [compound 457]	
450		C[C@@H]1C[C@H]2O[C@@H]2/C=C\C=C\C(=O)Cc2c(Cl)c(O)cc(O)c2C(=O)O1 [radicicol, reference compound]	
